What was measured:
Tg2576 mice [1] = assay: Reversal MWM after a 4-weeks wash-out period in aged-Tg2576 mice; assay type: in vivo; conditions: Retention phase of Reversal_MWM test, day 6th, after 4-weeks wash-out, Vorinostat 12.5 mg/Kg, Tadalafil 1 mg/Kg, mean ± standard deviation
Protocol: (§1) The effect on memory function of Vorinostat (12.5 mg/kg, i.p.), Tadalafil (1 mg/Kg p.o.) and the combination (Vorinostat, 12.5 mg/Kg+Tadalafil 1 mg/Kg) was studied in Tg2576 mice (14-16 month) after a chronic treatment of 2-5 weeks by using two different behavioral tasks: the Fear Conditioning (FC) and the Morris water maze (MWM) tests. Tg2576 mice express the human 695-aa isoform of APP (hAPP) containing the Swedish double mutation, which favours AP production.
(§2) The MWM and the revesal_MWM test was used to evaluate spatial memory as previously described (Ricobaraza et al., 2009; Neuropsychopharmacology, 34, 1721-1732 and Ricobaraza et al., 2011, Frontiers in bioscience, 3, 1375-84). After 3 weeks of treatments, groups of animals underwent spatial reference learning and memory testing in the MWM. […] In the probe trials the platform was removed from the pool, and the percentage of time spent in the quadrant where the platform was previously set was recorded.
After a 4-weeks wash-out period of the drugs, a reversal phase of MWM was carried out. […] Memory retention was analyzed in a probe at day 6.
(§3) All trials were monitored by a camera above the center of the pool connected to a SMART-LD program (Panlab S.L., Barcelona, Spain) for subsequent analysis of escape latencies, swimming speed, path length and percent time spent in each quadrant of the pool during probe trials. […]

Tg2576 mice [2] = assay: Morris water maze (MWM) test, memory retention in aged-Tg2576 mice; assay type: in vivo; conditions: Retention phase of MWM test, day 9th, Vorinostat 12.5 mg/Kg i.p., Tadalafil 1 mg/Kg p.o., mean ± standard deviation
Protocol: as §1
as §2, with “MWM. The water maze was a circular pool (diameter 1.2 m) filled with water maintained at 20° C. and made opaque by the addition of non-toxic white paint.” for “MWM.”
as §3

[3] = tested on: acetylated histone 3 at Lys9 (AcH3K9); assay: HDAC activity in wild type neurons: Western blot of acetylated histone 3 (AcH3K9) in primary neuronal cultures; assay type: cell-based, mice; conditions: 2 h
Protocol: (§4) The cellular assay to determine HDAC activity was assessed by Western blot analysis using a specific antibody against acetylated histone 3 at Lys9 (AcH3K9, Cell Signalling).
Primary neuronal cultures derived from the hippocampus and cortex of embryonic day 16 of wild type mice were used. Tissue was triturated using glass pipettes until neurons were dissociated. Neurons were plated with serum-free neurobasal media with B27 supplement (Invitrogen, Gaithersburg, Md.) and 2 mM L-glutamine on poly-L-lysine-treated (0.1 mg/ml; Sigma) 35 mm dishes.
To determine the concentration-response curve effect of Vorinostat and Tadalafil, cell cultures of 15 days in vitro were treated at different concentrations (10, 100 and 500 nM) during 2 h (Table 5).
Thus, to determine if a synergistic effect on epigenetic mark (AcH3) exists when both compounds are combined, Vorinostat at 50 nM was combined with Tadalafil at different concentrations (12.5, 25, 50, 100 and 200 nM) during 2 h (Table 6).
(§5) Cells were collected in a buffer containing a cold lysis buffer with protease inhibitors (0.2 M NaCl, 0.1 M HEPES (4-(2-hydroxyethyl)-1-piperazineethanesulfonic acid), 10% glycerol, 200 mM NaF, 2 mM Na4P2O7, 5 mM EDTA (ethylenediaminetetraacetic acid), 1 mM EGTA (ethylene glycol tetraacetic acid), 2 mM DTT (dithiothreitol), 0.5 mM PMSF (phenylmethylsulfonyl fluoride), 1 mM Na3VO4 and Complete Protease Inhibitor Cocktail, Roche Diagnostics), centrifuged at 14,000×g 4° C. for 20 min and the supernatant was aliquoted and stored at −80° C. Total protein concentrations were determined using the BioRad Bradford protein assay (BioRad Laboratories).
Protein samples were mixed with Laemmli sample buffer, resolved onto SDS-polyacrylamide gels and transferred to nitrocellulose membrane. The membranes were blocked with 5% milk, 0.05% Tween-20 in PBS (Phosphate-Buffered Saline) or TBS (Tris-Buffered Saline) followed by overnight incubation with the following primary antibodies: rabbit polyclonal anti-acetylated Histone 3 (acetyl K9, Cell Signalling 1:1000), mouse monoclonal anti-actin (Sigma, 1:50000) in the corresponding buffer. Following two washes in TBS/Tween20 and one wash in TBS alone, immunolabeled protein bands were detected by using HRP-conjugated anti-rabbit or anti-mouse antibody (Santa Cruz; dilution 1:5000) following an enhanced chemiluminescence system (ECL, GE Healthcare Bioscience, Buckinghamshire, UK), and autoradiographic exposure to HyperfilmtECL (GE Healthcare Bioscience). Quantity One™ software v.4.6.3 (Bio-Rad) was used for quantification.

pTau = pTau in the hippocampus of treated Tg2576 mice (western blot); assay type: in vivo; conditions: Vorinostat 12.5 mg/Kg, Tadalafil 1 mg/Kg, mean ± standard deviation
Protocol: (§6) Amyloid and Tau pathology was analyzed in the hippocampus of treated animals. Hippocampus was weighed and homogenized in 8 mass of ice-cold buffer containing a cold lysis buffer with protease inhibitors (0.2 M NaCl, 0.1 M HEPES (4-(2-hydroxyethyl)-1-piperazineethanesulfonic acid), 10% glycerol, 200 mM NaF, 2 mM Na4P2O7, 5 mM EDTA (ethylenediaminetetraacetic acid), 1 mM EGTA (ethylene glycol tetraacetic acid), 2 mM DTT (dithiothreitol), 0.5 mM PMSF (phenylmethylsulfonyl fluoride), 1 mM Na3VO4 and Complete Protease Inhibitor Cocktail, Roche Diagnostics), centrifuged at 14,000×g 4° C. for 20 min and the supernatant was aliquoted and stored at −80° C. Total protein concentrations were determined using the BioRad Bradford protein assay (BioRad Laboratories).
pTau was analyzed by western blot in the hippocampus of treated animals. […] Following two washes in TBS/Tween20 and one wash in TBS alone, immunolabelled protein bands were detected using HRP-conjugated anti-rabbit or anti-mouse antibodies (diluted 1:5,000 Santa Cruz). Binding was visualised by enhanced chemiluminescence (ECL, GE Healthcare Bioscience, Buckinghamshire, UK) and autoradiographic exposure to Hyperfilm ECL (GE Healthcare Bioscience), using Quantity One™ software v.4.6.3 (Bio-Rad) for quantification.

Tg2576 mice [4] = assay: Fear Conditioning (FC) test, memory function in aged-Tg2576 mice; assay type: in vivo; conditions: Tg2576 mice (14-16 month), chronic treatment; Vorinostat 12.5 mg/kg i.p., Tadalafil 1 mg/kg p.o.; mean ± standard deviation
Protocol: as §1
The behavioural procedure of FC task involved three phases: habituation, training and testing. During habituation phase, mice were habituated to the conditioning box (context) for 5 min with no stimuli presented. 24 hours later (training phase), mice were placed in the training chamber and allowed to explore for 2 min, afterward, a footshock (0.3 mA) unconditioned stimulus was administered (2 s) and 30 s after mice were returned to their home cage.
Mice were returned to the conditioning chamber 24 h after training and allowed to explore the context for 2 min, during which freezing behavior was recorded (contextual long term memory). Freezing scores were expressed as percentages. The conditioning procedure was carried out in a StartFear system (Panlab S.L., Barcelona, Spain) that allows recording and analysis of the signal generated by the animal movement through a high sensitivity Weight Transducer system. […]

Aβ42 = Aβ42 levels in hippocampal extracts of treated Tg2576 mice (sandwich ELISA); assay type: in vivo; conditions: Vorinostat 12.5 mg/Kg, Tadalafil 1 mg/Kg, mean ± standard deviation
Protocol: as §6
Aβ42 levels in hippocampal extracts were measured with the 3D6 antibody (specific for amino acids 1-5 of Aβ; kit from Biosource, USA) using a sensitive sandwich ELISA kit from Biosource (Camarillo, Ca, USA) according to the manufacturer's instructions.

[5] = tested on: acetylated histone 3 at Lys9 (AcH3K9); assay: HDAC activity in SHSY-5Y: Western blot of acetylated histone 3 (AcH3K9); assay type: cell-based, human; conditions: Vorinostat 10 nM alone, 2 hours, SHSY-5Y cell line
Protocol: as §4
A human neuroblastoma cell line (SHSY-5Y) was also used. Cell line was obtained from ATCC (CRL-2266) (Biedler et al., Cancer Research, 38, 3751-3757 1978) and cultured in 35 mm plates (Becton Dickinson, N.J.). The cells were grown to 90% confluence at 37° C. in an atmosphere of 5% CO2 and in Dulbecco's modified Eagle's medium supplemented with Glutamax (Gibco, Invitrogen, CA), 100 units/ml penicillin/streptomycin, 1× Minimum Essential Media (MEM) non essential amino acids and 10% fetal bovine serum (Gibco, Invitrogen, CA).
as §5, with “Laboratories). […]” for “Laboratories).”

SMILES	RMWM (% of time on right quadrant) (Tg2576 mice [1])	MWM (% of time on right quadrant) (Tg2576 mice [2])	AcH3 increment vs basal (no treatment) ([3]; compound alone 10 nM)	AcH3 increment vs basal (no treatment) ([3]; compound alone 100 nM)	AcH3 increment vs basal (no treatment) ([3]; compound alone 500 nM)	pTau/tTau in hippocampus (pTau)	FC (% freezing) (Tg2576 mice [4])	Aβ42 levels in hippocampus (Aβ42)	AcH3 increment vs basal (no treatment) [5]	AcH3 increment vs basal (no treatment) ([3]; Vorinostat 50 nM alone)
CN1CC(=O)N2[C@H](c3ccc4c(c3)OCO4)c3[nH]c4ccccc4c3C[C@@H]2C1=O [Tadalafil, (6R,12aR)-6-(1,3-Benzodioxol-5-yl)-2-methyl-2,3,6,7,12,12a-hexahydropyrazino[1′,2′: 1,6]pyrido[3,4-b]indole-1,4-dione]	21.26 ± 3.40%	23.3 ± 7.63%	+ (basal ×1 means no increment (+))	+ (basal ×1 means no increment (+))	+ (basal ×1 means no increment (+))	0.32 ± 0.03	41.38 ± 12.3%	14.89 ± 5.17 pg/mg		
O=C(CCCCCCC(=O)Nc1ccccc1)NO [Vorinostat, 8-(hydroxyamino)-8-oxo-N-phenyl-octanamide]	14.88 ± 5.88%	16.3 ± 4.69%	+ (basal ×1 means no increment (+))	++ (basal ×2≦(++))	++ (basal ×2≦(++))	0.56 ± 0.09	51.17 ± 14.8%	12.81 ± 4.68 pg/mg	+ (basal ×1 means no increment (+))	+ (basal ×1 means no increment (+))
